Patent US20090238808A1, “Process for the identification of novel enzyme interacting compounds” (priority 2005, published 2009)

Experiments:
Assay in all cases: Kinobeads elution with test compound, mouse brain lysate, MS
Format in all cases: binding
Conditions in all cases: kinase released from kinobeads by specific elution
CaMK2d = biological target: T1, CaMK2d (Mus musculus, UniProt Q6PHZ2)
T1 construct: […]; from tissue; host or cells: mouse brain
How it was run: (§1)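 Competitive elution: mouse brain lysate bound to kinobeads, gentle wash, test compound 1.0 mM in elution buffer, 30 min, 4° C; solvent control 2% DMSO/DMF. Eluates → DTT reduction, iodoacetamide alkylation, SDS gel → MS identification.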

RSK3 (Mus musculus) = tested on: T2, RSK3 (Mus musculus)
T2 construct: from tissue; host or cells: mouse brain
T2 sequence (P18653 whole entry): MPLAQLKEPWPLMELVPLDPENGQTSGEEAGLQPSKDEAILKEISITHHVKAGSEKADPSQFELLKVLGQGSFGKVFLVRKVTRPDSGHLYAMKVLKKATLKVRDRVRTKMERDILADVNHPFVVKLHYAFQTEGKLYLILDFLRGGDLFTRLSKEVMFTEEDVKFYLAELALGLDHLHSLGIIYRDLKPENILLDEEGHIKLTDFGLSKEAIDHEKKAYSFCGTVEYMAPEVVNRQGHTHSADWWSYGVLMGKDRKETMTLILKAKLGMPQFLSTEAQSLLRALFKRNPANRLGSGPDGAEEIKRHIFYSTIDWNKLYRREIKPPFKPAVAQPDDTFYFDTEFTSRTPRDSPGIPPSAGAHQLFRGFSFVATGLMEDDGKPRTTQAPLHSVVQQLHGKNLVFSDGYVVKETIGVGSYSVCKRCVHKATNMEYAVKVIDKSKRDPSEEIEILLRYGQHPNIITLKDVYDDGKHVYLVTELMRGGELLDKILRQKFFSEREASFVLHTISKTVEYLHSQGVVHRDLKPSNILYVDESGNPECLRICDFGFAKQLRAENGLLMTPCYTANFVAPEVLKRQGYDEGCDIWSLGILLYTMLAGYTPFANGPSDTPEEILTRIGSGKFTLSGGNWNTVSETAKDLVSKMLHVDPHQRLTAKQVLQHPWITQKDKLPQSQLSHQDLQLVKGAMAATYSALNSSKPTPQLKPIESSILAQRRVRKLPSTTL
How it was run: as §1

FER = FER (Mus musculus, UniProt P70451)
Sequence of FER (P70451 whole entry): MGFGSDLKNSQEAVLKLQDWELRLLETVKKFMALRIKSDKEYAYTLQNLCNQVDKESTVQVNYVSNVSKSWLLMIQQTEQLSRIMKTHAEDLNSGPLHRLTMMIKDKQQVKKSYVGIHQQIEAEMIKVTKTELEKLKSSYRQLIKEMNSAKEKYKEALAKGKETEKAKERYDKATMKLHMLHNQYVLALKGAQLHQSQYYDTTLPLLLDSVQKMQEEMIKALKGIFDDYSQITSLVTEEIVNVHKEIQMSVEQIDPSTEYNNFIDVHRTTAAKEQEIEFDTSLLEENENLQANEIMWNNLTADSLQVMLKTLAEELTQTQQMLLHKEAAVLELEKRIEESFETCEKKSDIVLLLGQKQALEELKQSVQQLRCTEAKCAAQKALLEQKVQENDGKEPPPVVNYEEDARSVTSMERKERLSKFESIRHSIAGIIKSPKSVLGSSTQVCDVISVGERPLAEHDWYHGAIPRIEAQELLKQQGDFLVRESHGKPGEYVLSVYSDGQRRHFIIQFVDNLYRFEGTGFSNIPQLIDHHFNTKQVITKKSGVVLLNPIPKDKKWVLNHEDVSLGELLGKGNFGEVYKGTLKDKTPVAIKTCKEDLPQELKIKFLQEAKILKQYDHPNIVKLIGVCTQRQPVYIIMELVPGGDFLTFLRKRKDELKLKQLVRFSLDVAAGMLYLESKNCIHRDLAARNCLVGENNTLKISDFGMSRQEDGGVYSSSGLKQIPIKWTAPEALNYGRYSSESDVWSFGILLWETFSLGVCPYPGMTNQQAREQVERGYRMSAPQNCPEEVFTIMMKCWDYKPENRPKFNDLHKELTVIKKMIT
How it was run: as §1

Erk1ps5 = biological target: T3, Erk1ps5 (Mus musculus, UniProt Q63844)
T3 construct: […]; from tissue; host or cells: mouse brain
T3 sequence (Q63844 2-380 limits assumed): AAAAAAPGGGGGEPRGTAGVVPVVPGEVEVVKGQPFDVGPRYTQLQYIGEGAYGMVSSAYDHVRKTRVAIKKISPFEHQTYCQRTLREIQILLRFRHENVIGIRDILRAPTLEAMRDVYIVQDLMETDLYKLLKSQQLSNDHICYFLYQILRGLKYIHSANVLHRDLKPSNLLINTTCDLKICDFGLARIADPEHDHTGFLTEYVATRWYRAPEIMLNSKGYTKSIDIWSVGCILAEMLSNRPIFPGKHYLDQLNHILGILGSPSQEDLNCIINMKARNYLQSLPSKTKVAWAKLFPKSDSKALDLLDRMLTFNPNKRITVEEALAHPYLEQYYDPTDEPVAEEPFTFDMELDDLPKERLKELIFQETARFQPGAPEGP
How it was run: as §1

CDK5 = CDK5 (Mus musculus, UniProt P49615)
Sequence of CDK5 (P49615 whole entry): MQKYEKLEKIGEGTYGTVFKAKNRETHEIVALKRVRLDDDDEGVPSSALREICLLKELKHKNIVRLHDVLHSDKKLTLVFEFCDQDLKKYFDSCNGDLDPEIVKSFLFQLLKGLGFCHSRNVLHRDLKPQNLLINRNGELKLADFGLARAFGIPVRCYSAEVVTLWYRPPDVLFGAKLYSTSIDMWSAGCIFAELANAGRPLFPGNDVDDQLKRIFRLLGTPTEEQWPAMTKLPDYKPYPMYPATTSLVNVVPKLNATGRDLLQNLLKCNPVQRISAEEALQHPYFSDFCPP
How it was run: as §1

CSK = CSK (Mus musculus, UniProt P41241)
Sequence of CSK (P41241 whole entry): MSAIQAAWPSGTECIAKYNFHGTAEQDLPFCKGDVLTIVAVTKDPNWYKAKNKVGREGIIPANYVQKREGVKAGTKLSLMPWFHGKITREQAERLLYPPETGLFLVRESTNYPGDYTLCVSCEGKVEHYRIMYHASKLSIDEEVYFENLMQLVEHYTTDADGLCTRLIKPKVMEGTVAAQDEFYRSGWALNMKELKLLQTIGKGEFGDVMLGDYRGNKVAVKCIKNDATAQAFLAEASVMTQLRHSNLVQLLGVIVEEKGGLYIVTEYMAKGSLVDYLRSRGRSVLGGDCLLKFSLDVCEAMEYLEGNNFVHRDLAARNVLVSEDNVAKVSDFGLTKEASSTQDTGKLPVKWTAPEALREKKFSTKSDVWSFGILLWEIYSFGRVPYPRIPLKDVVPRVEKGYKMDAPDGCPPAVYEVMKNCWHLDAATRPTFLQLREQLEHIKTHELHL
How it was run: as §1

Erk2 = biological target: T4, Erk2 (Mus musculus, UniProt P63085)
T4 construct: […]; from tissue; host or cells: mouse brain
T4 sequence (P63085 whole entry): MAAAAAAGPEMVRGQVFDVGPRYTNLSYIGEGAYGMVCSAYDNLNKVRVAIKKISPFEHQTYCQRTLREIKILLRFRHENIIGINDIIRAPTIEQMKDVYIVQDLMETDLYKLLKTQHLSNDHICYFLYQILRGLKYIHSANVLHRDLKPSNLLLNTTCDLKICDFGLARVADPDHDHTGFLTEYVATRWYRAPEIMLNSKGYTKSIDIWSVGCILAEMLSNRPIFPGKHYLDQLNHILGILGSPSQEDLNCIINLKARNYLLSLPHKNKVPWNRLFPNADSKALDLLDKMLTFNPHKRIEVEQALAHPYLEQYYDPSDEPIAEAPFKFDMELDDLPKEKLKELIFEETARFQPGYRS
How it was run: as §1

EphA5 = EphA5 (Mus musculus, UniProt Q60629)
Sequence of EphA5 (Q60629 27-876): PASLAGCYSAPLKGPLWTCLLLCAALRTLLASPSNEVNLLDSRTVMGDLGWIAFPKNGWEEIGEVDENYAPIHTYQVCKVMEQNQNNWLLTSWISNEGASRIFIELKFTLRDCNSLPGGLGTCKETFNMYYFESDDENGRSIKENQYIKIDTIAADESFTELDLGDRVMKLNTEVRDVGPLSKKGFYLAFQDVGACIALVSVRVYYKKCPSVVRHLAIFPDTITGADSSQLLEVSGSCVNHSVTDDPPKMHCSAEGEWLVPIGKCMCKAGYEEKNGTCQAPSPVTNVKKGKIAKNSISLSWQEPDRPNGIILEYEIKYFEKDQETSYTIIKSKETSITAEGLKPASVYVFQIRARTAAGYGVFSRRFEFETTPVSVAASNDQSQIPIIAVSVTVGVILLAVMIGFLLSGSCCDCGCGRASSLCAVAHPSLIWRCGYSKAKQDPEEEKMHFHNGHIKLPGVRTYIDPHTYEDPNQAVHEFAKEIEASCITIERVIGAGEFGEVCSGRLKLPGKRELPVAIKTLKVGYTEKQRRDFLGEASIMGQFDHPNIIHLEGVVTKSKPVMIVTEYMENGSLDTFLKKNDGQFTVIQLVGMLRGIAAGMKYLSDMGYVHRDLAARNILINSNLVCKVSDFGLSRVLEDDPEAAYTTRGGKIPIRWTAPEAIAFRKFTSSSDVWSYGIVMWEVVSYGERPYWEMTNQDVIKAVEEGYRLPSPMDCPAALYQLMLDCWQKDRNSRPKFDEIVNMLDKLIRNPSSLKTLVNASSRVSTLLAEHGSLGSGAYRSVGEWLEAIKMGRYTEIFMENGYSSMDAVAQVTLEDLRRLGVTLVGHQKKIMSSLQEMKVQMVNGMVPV
How it was run: as §1

GAK = biological target: T5, GAK (Mus musculus, UniProt Q99KY4)
T5 construct: from tissue; host or cells: mouse brain
T5 sequence (Q99KY4 1-1305): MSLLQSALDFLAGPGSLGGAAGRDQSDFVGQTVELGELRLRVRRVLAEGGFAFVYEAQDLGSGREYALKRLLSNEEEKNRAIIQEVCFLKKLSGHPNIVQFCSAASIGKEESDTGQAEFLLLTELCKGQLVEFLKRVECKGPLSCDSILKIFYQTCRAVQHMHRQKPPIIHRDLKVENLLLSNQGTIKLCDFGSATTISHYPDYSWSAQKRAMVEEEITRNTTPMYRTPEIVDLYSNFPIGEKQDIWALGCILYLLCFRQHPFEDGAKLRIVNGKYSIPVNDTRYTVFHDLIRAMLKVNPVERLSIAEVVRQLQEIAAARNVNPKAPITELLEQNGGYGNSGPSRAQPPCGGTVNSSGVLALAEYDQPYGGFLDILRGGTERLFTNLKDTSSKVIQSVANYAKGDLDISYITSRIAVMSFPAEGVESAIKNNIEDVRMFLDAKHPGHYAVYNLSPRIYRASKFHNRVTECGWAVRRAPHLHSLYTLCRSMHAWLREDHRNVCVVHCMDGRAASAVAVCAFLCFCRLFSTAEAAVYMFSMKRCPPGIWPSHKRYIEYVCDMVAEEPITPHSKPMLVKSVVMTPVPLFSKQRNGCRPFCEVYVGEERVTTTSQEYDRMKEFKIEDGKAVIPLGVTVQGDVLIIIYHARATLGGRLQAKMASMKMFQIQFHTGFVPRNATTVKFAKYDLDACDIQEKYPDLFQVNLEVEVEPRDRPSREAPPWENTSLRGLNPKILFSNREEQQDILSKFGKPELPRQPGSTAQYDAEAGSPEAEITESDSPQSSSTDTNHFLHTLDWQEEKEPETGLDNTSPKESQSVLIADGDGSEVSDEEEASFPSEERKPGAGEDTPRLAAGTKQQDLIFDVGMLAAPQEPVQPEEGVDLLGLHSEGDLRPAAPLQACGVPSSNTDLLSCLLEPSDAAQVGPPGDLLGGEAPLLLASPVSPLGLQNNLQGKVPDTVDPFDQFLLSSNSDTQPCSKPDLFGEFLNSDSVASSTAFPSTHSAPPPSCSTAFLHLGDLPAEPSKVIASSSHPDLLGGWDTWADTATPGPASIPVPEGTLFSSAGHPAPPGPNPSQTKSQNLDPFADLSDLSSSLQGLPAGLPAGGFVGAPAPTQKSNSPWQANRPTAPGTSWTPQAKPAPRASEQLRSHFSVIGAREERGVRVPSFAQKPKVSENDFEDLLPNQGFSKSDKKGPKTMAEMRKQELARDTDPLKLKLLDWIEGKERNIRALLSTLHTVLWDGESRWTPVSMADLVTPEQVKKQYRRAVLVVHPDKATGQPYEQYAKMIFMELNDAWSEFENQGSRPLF
How it was run: as §1

T1 sequence (Q6PHZ2 whole entry): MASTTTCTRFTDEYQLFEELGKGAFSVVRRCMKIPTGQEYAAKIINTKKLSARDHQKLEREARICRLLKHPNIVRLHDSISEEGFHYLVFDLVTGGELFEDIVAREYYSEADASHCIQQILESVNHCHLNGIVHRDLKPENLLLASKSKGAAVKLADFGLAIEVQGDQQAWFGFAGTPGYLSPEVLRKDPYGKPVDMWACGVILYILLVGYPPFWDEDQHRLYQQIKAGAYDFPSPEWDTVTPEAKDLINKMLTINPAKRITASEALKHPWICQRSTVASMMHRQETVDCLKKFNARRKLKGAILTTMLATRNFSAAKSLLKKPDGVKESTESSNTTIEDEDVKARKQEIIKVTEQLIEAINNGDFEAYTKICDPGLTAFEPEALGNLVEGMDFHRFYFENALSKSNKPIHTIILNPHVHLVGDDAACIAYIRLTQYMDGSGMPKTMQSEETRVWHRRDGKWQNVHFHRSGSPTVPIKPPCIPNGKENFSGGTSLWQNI

mass spectrometry score, CaMK2d (CaMK2d)	number of identified peptides, CaMK2d (CaMK2d)	mass spectrometry score, RSK3 (RSK3 (Mus musculus))	mass spectrometry score, FER (FER)	number of identified peptides, FER (FER)	mass spectrometry score, Erk1ps5 (Erk1ps5)	number of identified peptides, Erk1ps5 (Erk1ps5)	mass spectrometry score, CDK5 (CDK5)	number of identified peptides, CDK5 (CDK5)	mass spectrometry score, CSK (CSK)	number of identified peptides, CSK (CSK)	mass spectrometry score, Erk2 (Erk2)	number of identified peptides, Erk2 (Erk2)	mass spectrometry score, EphA5 (EphA5)	number of identified peptides, EphA5 (EphA5)	mass spectrometry score, GAK (GAK)	number of identified peptides, GAK (GAK)	Compound
473	12	401	322	8	749	48	1086	41	492	12	1437	115	330	14	–	–	CC(C)[C@H](CO)Nc1nc(Nc2ccc(C(=O)O)c(Cl)c2)c2ncn(C(C)C)c2n1 [Purvalanol B, reference compound]
444	11	–	100	2	386	26	794	27	–	–	810	46	–	–	733	16	NCc1ccc(Nc2ncc(F)c(Nc3ccccc3)n2)cc1 [CZC00008004]
434	36	107	275	11	239	8	604	21	365	15	1023	102	246	9	166	8	CCCCCCCCCCCCOS(=O)(=O)[O-].[Na+] [SDS]
328	7	312	388	11	557	77	462	11	809	19	1179	235	144	3	278	7	Cn1c(=O)c(-c2c(Cl)cccc2Cl)cc2cnc(Nc3ccc(CN)cc3)cc21 [CZC7324]

Compound	mass spectrometry score, CaMK2d (CaMK2d)	number of identified peptides, CaMK2d (CaMK2d)	mass spectrometry score, RSK3 (RSK3 (Mus musculus))	mass spectrometry score, FER (FER)	number of identified peptides, FER (FER)	mass spectrometry score, Erk1ps5 (Erk1ps5)	number of identified peptides, Erk1ps5 (Erk1ps5)	mass spectrometry score, CDK5 (CDK5)	number of identified peptides, CDK5 (CDK5)	mass spectrometry score, CSK (CSK)	number of identified peptides, CSK (CSK)	mass spectrometry score, Erk2 (Erk2)	number of identified peptides, Erk2 (Erk2)	mass spectrometry score, EphA5 (EphA5)	number of identified peptides, EphA5 (EphA5)	mass spectrometry score, GAK (GAK)	number of identified peptides, GAK (GAK)
CNC1CC2OC(C)(C1OC)n1c3ccccc3c3c4c(c5c6ccccc6n2c5c31)C(=O)NC4 (stereo not drawn) [CZC9280]	822	40	721	818	21	71	2	861	43	307	8	–	–	–	–	–	–
